{
  "source": "patent US20070202163A1",
  "about": "(priority 2005, published 2007)",
  "key": {"[1]": {"conditions": "7.3 mg in 100 μl of a saturated solution of mannitol, monitored over 5 minutes"}, "[2]": {"conditions": "cited from earlier work"}, "in vivo [3]": {"assay": "in vivo", "conditions": "for AUC(0-inf) / AUC(0-t) / Cmax / Tmax / half-life: both, NZW, rabbit, plasma", "experimental": "Sublingual tablets or IM doses were administered using a Randomized Crossover study design over 5-consecutive weeks.\n(§1) Animals were evaluated for viability once-daily throughout the study. Cageside clinical observations were performed twice-daily from the initiation of dosing until the end of treatment. Body weights were obtained upon receipt, on Study Day 1 and weekly thereafter.\nBlood samples (approximately 1 mL/time point) were obtained from an indwelling arterial catheter placed approximately 30-minutes prior to initiation of sample collection. Samples were collected immediately prior to dosing (pre-dose baseline) and at approximately 5, 10, 15, 20, 30, 40, 60, 90, 120, and 180 minutes after dosing. At later time points, the samples were obtained by direct needle puncture or by removing the catheter and allowing blood to flow directly from the animal's ear artery into the blood collection tube.\nImmediately after collection, the tube was inverted several times to disperse the anticoagulant and then placed on ice until centrifugation. The blood samples were centrifuged (˜2000×g for 10 minutes at 8° C.) within approximately 15-30 minutes of collection to separate the cellular and plasma fractions. The plasma fraction was harvested into screw-capped tubes and stored at approximately −70° C. (±10° C.) until analyzed. […] The remaining red blood cell fraction was discarded.\nThe method was validated based on the commercial method developed by ESA Biosciences, Inc. (Chelmsford, Mass.). All standards and reagents for the extraction and chromatography were purchased from ESA. Plasma samples, calibrators and quality control (QC) samples were extracted as follows: Each 0.50 mL aliquot of calibration curve standard, QC or unknown sample was mixed with 0.50 mL of working internal standard (I.S.) stock solution (dihydroxybenzylamine [DHBA], 10 ng/mL) in an ESA extraction tube containing alumina and buffer. The extraction tubes were capped and placed on a rocking shaker for 10 minutes. The tubes were placed on a vacuum manifold and the liquid was aspirated to waste. Each tube was then filled with wash solution which was aspirated to waste. Eluting solution (200 μL) was added to each tube. The tubes were capped and vortex-mixed for 10 minutes. The eluting solution was then forced from the tube under pressure into a microcentrifuge tube. The samples were centrifuged for 15 minutes, transferred to an autosampler vial and a 50 μl aliquot was injected into the HPLC.\nA freshly prepared standard curve was analyzed along with samples on each day of analysis. […] Calibrator concentrations were 0.5, 1, 2, 4, 8, 12, 16 and 20 ng/mL as determined in the validation study. […] For the determination of unknown sample concentrations, two standard curve ranges were used; 0.5 to 20 ng/mL and 12 to […]. Values of unknown samples less than or equal to 20 ng/mL were reported from the lower range, and values greater than 20 ng/mL were reported from the higher range.\nElimination half-life (T½), maximum concentration (Cmax), time of maximum concentration (Tmax), area under the plasma concentration-time curve from time 0 through the final timepoint (AUC0-t), and area under the plasma concentration-time curve from time 0 extrapolated to infinity (AUC0-∞) were calculated for this study. The noncompartmental model for extravascular administration was used for all pharmacokinetic analyses. The calculation method was linear trapezoidal with linear/log interpolation. The elimination rate constant, lambda z (λz), was determined by WinNonlin using the best fit method."}, "[4]": {"conditions": "rabbits; for Serum glucose level: relative to predose baseline; for Serum potassium levels: relative to predose levels", "experimental": "as §1"}, "[5]": {"conditions": "rabbit, in vivo, im, 0.3 mg", "description": "(§2) In a prospective, controlled, 5-way crossover study, five New Zealand white rabbits (mean weight 4.8±0.2 were investigated on five different days at least four weeks apart, using a protocol described previously (Gu et al., 1999). Each rabbit received EP 10 mg, EP 20 mg, and EP 40 mg as sublingual tablets, a placebo sublingual tablet (EP 0 mg) (as set forth in Table VI), and an EP 0.3 mg IM injection in the right thigh from EpiPen.\n(§3) Using the same five New Zealand white rabbits (mean weight 4.8±0.2 Kg) as referred to supra, a prospective, controlled, 5-way crossover study was conducted, using a protocol described above (Gu et al., 1999), wherein each rabbit received an EP 40 mg sublingual tablet from each formulation set forth in Table XII and an EP 0.3 mg IM injection in the right thigh from EpiPen.\n(§4) An indwelling catheter (OPTIVA 22G 1″, Johnson & Johnson) was inserted into an ear artery 30 min before dosing A 2 ml blood sample was obtained immediately before dosing and at 5, 10, 15, 20, 30, 40, 60, 90, 120, 150 and 180 minutes afterward.\n(§5) Blood samples were refrigerated within 1 hour of sampling and centrifuged at 4° C. Plasma was frozen at −20° C. Before analysis, the plasma was thawed at room temperature and EP was extracted by a solid-liquid extraction process, with an efficiency of 70%-80%. […] The low range calibration curve was linear over the range of 0.1 to 1.0 ng/ml with a coefficient of variation of 0.8% at 0.1 ng and 1.4% at 1.0 ng. The high range calibration curve was linear over the range of 1.0 to 10.0 ng/ml with a coefficient of variation of 4.8% at 1.0 ng and 1.1% at 10.0 ng.\n(§6) The AUC, Cmax, and Tmax values for each rabbit were compared using repeated measures ANOVA, Tukey-Kramer tests, and paired Students' t-test using NCSS Statistical Analysis Software (NCSS, Kaysville, Utah). Differences were considered to be significant at p<0.05."}, "in vivo [6]": {"assay": "in vivo", "conditions": "New Zealand white, rabbit, im, 0.3 mg", "description": "as §2, §3, §4, §5, §6"}, "[7]": {"conditions": "rabbits, 0.3 mg IM, mean ± SD, listed as epinephrine"}, "[8]": {"conditions": "rabbits, 15 mg sublingual tablet, N = 1"}, "[9]": {"conditions": "rabbits, 15 mg sublingual tablet, mean ± SD"}, "[10]": {"conditions": "rabbits, 30 mg sublingual tablet, mean ± SD"}, "[11]": {"conditions": "rabbits, 30 mg sublingual tablet, mean ± SD, listed as epinephrine"}, "[12]": {"conditions": "rabbits, 60 mg sublingual (2x30 mg tablets), mean ± SD"}},
  "note": "Entries after “also recorded” stand apart in the source; their conditions may differ. Counter-ions that a name gives are not always drawn. Like-named read-outs stand apart in the source and are kept apart here.",
  "data": [
    {"compound": "CNC[C@H](O)c1ccc(O)c(O)c1", "note": "[EPBT, (−)-3,4-dihydroxy-α-[(methylamino)methyl]benzyl alcohol (+)-tartrate (1:1) salt]", "values": [
      {"measurement": "Dissolution of crystals", "setting": "[1]", "result": "incomplete after 5 minutes; also recorded: slow and incomplete at the end of 5 minutes"},
      {"measurement": "Water solubility", "setting": "[2]", "result": 1, "unit": "gm in 3 ml water"}
    ]},
    {"compound": "CNC[C@H](O)c1ccc(O)c(O)c1", "note": "[Epinephrine]", "values": [
      {"measurement": "AUC(0-inf)", "setting": "in vivo [3]; 15 mg", "result": 196, "unit": "ng·h/mL"},
      {"measurement": "AUC(0-t)", "setting": "in vivo [3]; 15 mg", "result": 74.9, "unit": "ng·h/mL"},
      {"measurement": "Cmax", "setting": "in vivo [3]; 15 mg", "result": "119 ± 131", "unit": "ng/mL"},
      {"measurement": "Tmax", "setting": "in vivo [3]; 15 mg", "result": 59.2, "unit": "min"},
      {"measurement": "half-life", "setting": "in vivo [3]; 15 mg", "result": "181 ± 36.3", "unit": "min"},
      {"measurement": "AUC(0-inf)", "setting": "in vivo [3]; 30 mg", "result": 86.7, "unit": "ng·h/mL"},
      {"measurement": "AUC(0-t)", "setting": "in vivo [3]; 30 mg", "result": 82.3, "unit": "ng·h/mL"},
      {"measurement": "Cmax", "setting": "in vivo [3]; 30 mg", "result": "142 ± 192", "unit": "ng/mL"},
      {"measurement": "Tmax", "setting": "in vivo [3]; 30 mg", "result": 36.7, "unit": "min"},
      {"measurement": "half-life", "setting": "in vivo [3]; 30 mg", "result": "86.3 ± 60.5", "unit": "min"},
      {"measurement": "AUC(0-inf)", "setting": "in vivo [3]; 60 mg", "result": 300, "unit": "ng·h/mL"},
      {"measurement": "AUC(0-t)", "setting": "in vivo [3]; 60 mg", "result": 242, "unit": "ng·h/mL"},
      {"measurement": "Cmax", "setting": "in vivo [3]; 60 mg", "result": "234 ± 182", "unit": "ng/mL"},
      {"measurement": "Tmax", "setting": "in vivo [3]; 60 mg", "result": 44.2, "unit": "min"},
      {"measurement": "half-life", "setting": "in vivo [3]; 60 mg", "result": "141 ± 135", "unit": "min"},
      {"measurement": "AUC(0-inf)", "setting": "in vivo [3]; im, 0.3 mg", "result": 78.4, "unit": "ng·h/mL"},
      {"measurement": "AUC(0-t)", "setting": "in vivo [3]; im, 0.3 mg", "result": 54.3, "unit": "ng·h/mL"},
      {"measurement": "Cmax", "setting": "in vivo [3]; im, 0.3 mg", "result": "54.7 ± 28.3", "unit": "ng/mL"},
      {"measurement": "Tmax", "setting": "in vivo [3]; im, 0.3 mg", "result": 24, "unit": "min"},
      {"measurement": "half-life", "setting": "in vivo [3]; im, 0.3 mg", "result": "91.3 ± 44.3", "unit": "min"},
      {"measurement": "Cmax1", "setting": "in vivo [3]; rabbits, 0.3 mg IM, mean ± SD", "result": "26.6 ± 9.4", "unit": "ng/mL"},
      {"measurement": "Cmax2", "setting": "in vivo [3]; rabbits, 0.3 mg IM, mean ± SD", "result": "42.7 ± 18.1", "unit": "ng/mL"},
      {"measurement": "Tmax1", "setting": "in vivo [3]; rabbits, 0.3 mg IM, mean ± SD", "result": "9.0 ± 2.2", "unit": "min"},
      {"measurement": "Cmax2", "setting": "in vivo [3]; [7]", "result": "42.7 ± 18.1", "unit": "ng/mL"},
      {"measurement": "Tmax1", "setting": "in vivo [3]; [7]", "result": "9.0 ± 2.2", "unit": "min"},
      {"measurement": "Cmax4", "setting": "in vivo [3]; [8]", "result": 55.10, "unit": "ng/mL"},
      {"measurement": "Tmax4", "setting": "in vivo [3]; [8]", "result": 180.0, "unit": "min"},
      {"measurement": "Cmax1", "setting": "in vivo [3]; [9]", "result": "55.4 ± 87.6", "unit": "ng/mL"},
      {"measurement": "Cmax2", "setting": "in vivo [3]; [9]", "result": "30.4 ± 25.7", "unit": "ng/mL"},
      {"measurement": "Cmax3", "setting": "in vivo [3]; [9]", "result": "85.2 ± 127.8", "unit": "ng/mL"},
      {"measurement": "Tmax1", "setting": "in vivo [3]; [9]", "result": "9.2 ± 2.0", "unit": "min"},
      {"measurement": "Tmax3", "setting": "in vivo [3]; [9]", "result": "111.7 ± 59.5", "unit": "min"},
      {"measurement": "Cmax1", "setting": "in vivo [3]; [10]", "result": "147.5 ± 215.7", "unit": "ng/mL"},
      {"measurement": "Cmax2", "setting": "in vivo [3]; [10]", "result": "82.2 ± 102.1", "unit": "ng/mL"},
      {"measurement": "Cmax3", "setting": "in vivo [3]; [10]", "result": "45.5 ± 44.3", "unit": "ng/mL"},
      {"measurement": "Tmax1", "setting": "in vivo [3]; [10]", "result": "8.3 ± 4.1", "unit": "min"},
      {"measurement": "Cmax2", "setting": "in vivo [3]; [11]", "result": "82.2 ± 102.1", "unit": "ng/mL"},
      {"measurement": "Tmax1", "setting": "in vivo [3]; [11]", "result": "8.4 ± 4.1", "unit": "min"},
      {"measurement": "Cmax1", "setting": "in vivo [3]; [12]", "result": "154.0 ± 125.4", "unit": "ng/mL"},
      {"measurement": "Cmax2", "setting": "in vivo [3]; [12]", "result": "85.4 ± 35.3", "unit": "ng/mL"},
      {"measurement": "Cmax3", "setting": "in vivo [3]; [12]", "result": "127.8 ± 83.8", "unit": "ng/mL"},
      {"measurement": "Tmax1", "setting": "in vivo [3]; [12]", "result": "14.2 ± 8.6", "unit": "min"},
      {"measurement": "Tmax1", "setting": "in vivo [3]; rabbits, 60 mg sublingual (2x30 mg tablets), mean ± SD, listed as epinephrine", "result": "14.2 ± 8.6", "unit": "min"},
      {"measurement": "Serum glucose level", "setting": "[4]; 0.3 mg IM", "result": "increase in serum glucose level"},
      {"measurement": "Serum potassium levels", "setting": "[4]; 30 mg sublingual", "result": "decreased"},
      {"measurement": "Serum glucose level", "setting": "[4]; 60 mg sublingual", "result": "increase in serum glucose level"},
      {"measurement": "Serum potassium levels", "setting": "[4]; 60 mg sublingual", "result": "decreased"},
      {"measurement": "AUC", "setting": "[5]", "result": "2431 ± 386", "unit": "ng/mL/min"},
      {"measurement": "Cmax", "setting": "in vivo [6]", "result": "50.3 ± 17.1", "unit": "ng/mL"},
      {"measurement": "Tmax", "setting": "in vivo [6]", "result": 21, "unit": "min"}
    ]},
    {"compound": "OC[C@@H](O)[C@@H](O)[C@H](O)[C@H](O)CO", "note": "[Mannitol]", "values": [
      {"measurement": "Water solubility", "setting": "[2]", "result": 1, "unit": "gm in 5.5 ml water"}
    ]}
  ]
}
